{
  "source": "patent US9345669B2",
  "about": "“Biodegradable natural films based on co-products derived from industrial-scale seed-treatment processes” (Sojasun Technologies, priority 2011, dated 2016)",
  "assay": "Diffusion of isoflavones from films into an agar plate (gelose) matrix simulating the vaginal mucous membrane",
  "assay_type": "physicochemical",
  "from_the_text": "FIG. 1 is a flowchart pertaining to the protocol for evaluating the diffusion of isoflavones made out of films according to the invention towards a matrix simulating the vaginal mucous membrane;\nThe films according to the present invention meeting the formulations 1 to 6 described here above were associated with an extract obtained from soybeans. The extract is incorporated directly into the mixture so that its content is 4.2% by mass. This extract has the particular feature of being rich in isoflavones and especially having high daidzin and genistin content.\nThe tests explained here below show the possible use of films according to the invention for making products for administering active ingredients by diffusion of these ingredients from the film towards the vaginal mucous membrane.\nIn these tests, in order to model the vaginal mucous membrane, an agar plate with an Agar concentration of 30 g/l was used.\nThe diffusion of daidzin and genistin in the lower agar plate and the upper agar plate was studied with films complying with the formulations 1, 2 and 3 described here above. The results of this study are indicated in the two graphs of FIG. 2.\nThe influence of the proportion by weight of film-forming agent (sodium caseinate (NaCAS)) in films according to the invention meeting the formulations 5, 2 and 4 described here above on the diffusion of daidzin (a) and genistin (b) has also been studied. The results of this study are indicated in the two graphs shown in FIG. 3 in which the concentration in isoflavones diffused has been related in terms of percentage to the case where the entire active ingredient would have been diffused.\nThe hydrophobic agent chosen for this study is soy lecithin. A suspension of this compound was also prepared using 5 g of soy lecithin powder mixed with 10 mL of ultra-pure water. The films complying with the formulations 1 and 2 were then coated with this suspension (on the upper and lower faces) and then placed on gelose in order to carry out migration tests.\nTwo rates of plasticization were examined, corresponding to the formulations 4 and 5 of the films according to the invention described here above.",
  "data": [
    {"substance": "Daidzin", "values": [
      {"measurement": "concentration in gelose under equilibrium", "setting": "films of formulations 1, 2 and 3 with 4.2% soybean extract, agar 30 g/l (FIG. 2)", "value": "about 10 μg/mL"},
      {"measurement": "isoflavone diffused towards the gelose after 24 hours of contact", "setting": "films of formulations 5, 2 and 4 (varied proportion of sodium caseinate), % of total active ingredient (FIG. 3)", "value": "more than 90%"},
      {"measurement": "isoflavone diffused in the gelose after 48 hours of contact, with soy lecithin coating", "setting": "formulations 1 and 2 coated with soy lecithin on upper and lower faces (FIG. 4)", "value": 40, "unit": "%"},
      {"measurement": "isoflavone diffused after 30 hours, plasticization rate 20%", "setting": "plasticization rate 20% glycerol (FIG. 5)", "value": 90, "unit": "%"},
      {"measurement": "isoflavone diffused after 30 hours, glycerol rate 30% by mass", "setting": "plasticization rate 30% glycerol (FIG. 5)", "value": "~100", "unit": "%"}
    ]}
  ]
}
